Test results reported in patent US8710097B2, “Flavonoid dimers and methods of making and using such” (The Hong Kong Polytechnic University, priority 2006, dated 2014).

Key:
[1] = tested on: pentamidine-resistant L. enriettii LePentR50 promastigotes; test: microbe, parasite or virus in culture
[2] = tested on: wild type L. enriettii (Le); test: Leishmania cell viability (MTS) assay; type: cell-based, Leishmania enriettii; details: Le wild type
Method: Cell lines and Cell Culture. Promastigotes of Leishmania enriettii (LePentR50, Le wild type, LeMDR1 −/− and LeMDR1-overexpressed LeV160 mutants) and Leishmania donovani (LdAG83, Ld2001 and Ld39) were employed in this study. The former is a natural infective strain of guinea pig and the latter is a clinical strain, which may cause visceral leishmaniasis in human. Both strains were cultured in Schneider's Drosophila Medium (Invitrogen), pH 6.9 supplemented with 10% (v/v) heat inactivated fetal calf serum (Hyclone) with 4 mM glutamine (Sigma) and 25 μg/mL gentamicin solution (Invitrogen), at 27° C. for 4 days (Cloning and functional analysis of an extrachromosomally amplified multidrug resistance-like gene in Leishmania enriettii. Mol. Biochem. Parasitol 1993, 60, 195-208).
Promastigotes of LeV160 were culture in the presence of 160 μg/mL vinblastine. No pentamidine and vinblastine (Sigma) was added to the Le wild type and LeMDR1 −/− mutant.
The viability of promastigotes was determined by the Cell Titer 96® Aqueous Assay (Promega) that employs a tetrazolium compound (MTS) and electron coupling reagent, phenazine methosulfate (PMS). Promastigotes were seeded into 96-well flat bottom microtiter plate at 1×10^5 cells per well in a final volume of 100 μL medium. To determine the cytotoxic effects of flavonoid dimers to the parasites, various concentrations of flavonoid dimers were added to the promastigotes. To determine the reversal effects of flavonoid dimers with different spacer lengths, various concentrations of antileishmanial drugs, one of pentamidine or SSG, vinblastine and puromycin was added to the wells with or without flavonoid dimers. The parasites were incubated at 27° C. for 72 hrs. Each concentration of antileishmanials with or without the flavonoid dimers was tested in triplicates in each experiment. A 2 mg/mL MTS and 0.92 mg/mL PMS were mixed at a ratio of 20:1 (MTS: PMS). […] After 4 hrs of incubation, the OD values were determined at 490 nm using automatic microtiter plate reader (Bio-Rad).

[3] = tested on: tested MDR cell lines (drug resistant breast cancer and leukemia cells); type: cell-based
Text: Cell proliferation assay.

[4] = tested on: LeMDR1 knockout (LeMDR1 −/−) L. enriettii; test: Leishmania cell viability (MTS) assay; type: cell-based, Leishmania enriettii; details: LeMDR1 −/−
Text: (§1) Cell lines and Cell Culture.

[5] = tested on: LeMDR1 overexpressed L. enriettii (LeV160); test: Leishmania cell viability (MTS) assay; type: cell-based, Leishmania enriettii; details: LeV160
Text: as §1

P388/ADR cells = test: Doxorubicin accumulation; type: cell-based, murine; details: 10 μM doxorubicin, 2 h, FIG. 11A
Ld2001 amastigotes = test: Total antimony (SSG) accumulation assay using ICP-MS; type: cell-based, Leishmania donovani; details: 3 hr
Method: (§2) Amastigotes of L. donovani was prepared by spinning down 50 mL 4-day-old promastigotes (late log phase), and transferred to an axenic medium containing M199 Medium (Gibco), 0.5% Trypto casein soya, 3 mM L-cysteine, 15 mM D-glucose, 5 mM L-glutamine, 4 mM NaHCO3, 25 mM HEPES, 0.01 mM bathocuproine-disulfonic acid and 0.023 mM Hemin. Cells were then incubated at 37° C. for 24 hr. Amastigotes became ovoid in shape and were ready for drug accumulation assay.
(§3) The effect of flavonoid dimers on accumulation of antimony sodium stibogluconate (SSG) was investigated. Amastigotes are more susceptible to SSG and therefore accumulate more SSG as compared to promastigotes. Therefore, amastigotes were chosen for studying the Sb accumulation assay. […] After 3 hour incubation, the parasites were washed thrice with cold PBS, pH 7.4. The cell pellet was dissolved in 200 μL concentrated nitric acid for 24 hr at room temperature. The sample was diluted to 3 mL with distilled water, resulting in a final concentration of about 5 ppb of total Sb solution. It was then injected to ICP-MS (Perkin-Elmer) for quantitation. Antimony was measured at its m/z ratios of 121 and 123 with indium (In, m/z=115) as an internal standard. All chemicals used for the pretreatment of the samples were of at least analytical grade and the distilled water used directly as received without further purification.

Ld39 amastigotes = test: as above; type: cell-based, Leishmania donovani; details: 3 hr
Method: as §2, §3

LdAG83 amastigotes = test: as above; type: cell-based, Leishmania donovani; details: 9d 30 μM or 60 μM
Method: as §2, §3

O=c1cc(-c2ccc(OCCOCCOCCOCCOc3ccc(-c4cc(=O)c5c(O)cc(O)cc5o4)cc3)cc2)oc2cc(O)cc(O)c12 [Compound 9d, 1,13-Bis[4′-((5,7-dihydroxy)-4H-chromen-4-on-2-yl)phenyl]-1,4,7,10,13-pentaoxamidecane]
cytotoxicity under accumulation conditions ([1]; LePentR50, 60 μM 9d, 3 hours, data not shown): did not result in any cytotoxicity | pentamidine sensitization ([1]; LePentR50, FIG. 18A): ~3.7 fold | toxicity of modulator alone ([1]; LePentR50, up to 6 μM): No toxicity | EC50 ([1]; read-out: EC50 (concentration resulting in 50% survival of LePentR50 at 60 μg/ml pentamidine), co-treatment with 60 μg/ml pentamidine, FIG. 15): ~940 nM | IC50 ([1]; read-out: IC50(μM) of synthetic flavonoid, LePentR50, cytotoxicity of compound alone, 72 hrs): > 200 µM | decrease of IC50 of pentamidine [2]: about 3 fold | increase of cytotoxicity of anticancer drugs [3]: 6-50 RF | pentamidine sensitization [4]: 4.1 fold | decrease of IC50 of pentamidine [5]: ~1.9 fold | increase of doxorubicin accumulation, folds of control (P388/ADR cells): about 2 folds | SSG accumulation, % of that of LdAG83 (Ld2001 amastigotes; 30 μM 9d): 83% | SSG accumulation, % of that of LdAG83 (Ld2001 amastigotes; 60 μM 9d): 69% | SSG accumulation, % of that of LdAG83 (Ld39 amastigotes; 30 μM 9d): 74% | SSG accumulation, % of that of LdAG83 (Ld39 amastigotes; 60 μM 9d): 90% | accumulation of SSG versus cells without treatment (LdAG83 amastigotes): did not significantly differ
